Reference: PubChem BioAssay (NCI)
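Values below derive from 48-hour exposures of cells grown in 96-well plates, with endpoints linearly interpolated between the two concentrations bracketing the appropriate inhibition level. At the TGI there is no net growth.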

Key:
Test in all cases: NCI anticancer screen, dose series, 48 h
786-0 renal = tested on: 786-0 renal
A498 renal = tested on: A498 renal
A549 NSCLC = tested on: A549 NSCLC
ACHN renal = tested on: ACHN renal
CAKI-1 renal = tested on: CAKI-1 renal
CCRF-CEM leukemia = tested on: CCRF-CEM leukemia
COLO 205 colon = tested on: COLO 205 colon
DLD-1 colon = tested on: DLD-1 colon
DMS 114 small cell lung = tested on: DMS 114 small cell lung
DMS 273 small cell lung = tested on: DMS 273 small cell lung
EKVX NSCLC = tested on: EKVX NSCLC
HCC-2998 colon = tested on: HCC-2998 colon
HCT-116 colon = tested on: HCT-116 colon
HCT-15 colon = tested on: HCT-15 colon
HL-60(TB) leukemia = tested on: HL-60(TB) leukemia
HOP-18 NSCLC = tested on: HOP-18 NSCLC
HT29 colon = tested on: HT29 colon
IGROV1 ovarian = tested on: IGROV1 ovarian
K-562 leukemia = tested on: K-562 leukemia
KM12 colon = tested on: KM12 colon
KM20L2 colon = tested on: KM20L2 colon
LOX IMVI melanoma = tested on: LOX IMVI melanoma
LXFL 529 NSCLC = tested on: LXFL 529 NSCLC
M14 melanoma = tested on: M14 melanoma
M19-MEL melanoma = tested on: M19-MEL melanoma
MALME-3M melanoma = tested on: MALME-3M melanoma
MOLT-4 leukemia = tested on: MOLT-4 leukemia
NCI-H226 lung = tested on: NCI-H226 lung
NCI-H23 lung = tested on: NCI-H23 lung
NCI-H460 lung = tested on: NCI-H460 lung
OVCAR-3 ovarian = tested on: OVCAR-3 ovarian
OVCAR-4 ovarian = tested on: OVCAR-4 ovarian
OVCAR-5 ovarian = tested on: OVCAR-5 ovarian
OVCAR-8 ovarian = tested on: OVCAR-8 ovarian
RPMI-8226 leukemia = tested on: RPMI-8226 leukemia
RXF 393 renal = tested on: RXF 393 renal
SF-268 CNS = tested on: SF-268 CNS
SF-295 CNS = tested on: SF-295 CNS
SF-539 CNS = tested on: SF-539 CNS
SK-MEL-2 melanoma = tested on: SK-MEL-2 melanoma
SK-MEL-28 melanoma = tested on: SK-MEL-28 melanoma
SK-MEL-5 melanoma = tested on: SK-MEL-5 melanoma
SK-OV-3 ovarian = tested on: SK-OV-3 ovarian
SN12C renal = tested on: SN12C renal
SNB-19 CNS = tested on: SNB-19 CNS
SNB-75 CNS = tested on: SNB-75 CNS
SNB-78 CNS = tested on: SNB-78 CNS
SW-620 colon = tested on: SW-620 colon
TK-10 renal = tested on: TK-10 renal
U251 CNS = tested on: U251 CNS
UACC-257 melanoma = tested on: UACC-257 melanoma
UACC-62 melanoma = tested on: UACC-62 melanoma
UO-31 renal = tested on: UO-31 renal

Measured: TGI

CC(C)=CC(=O)C/C(=N\NC(N)=S)C(=O)Nc1ccc(Cl)cc1
> 100 µM: all assays above
